Laboratory results taken from patent US20160176769A1, “PARTICULATE NITRIFICATION INHIBITOR SYSTEMS” (Ballance Agri-Nutrients Limited, priority 2008, published 2016).

System: nitrification in soil
Assay: closed soil incubation experiment (nitrate and ammonium analyses of incubated soil)
Settings: urea approx. 200 kg N/ha, Horotiu silt loam, 20°C
Experimental: A closed soil incubation experiment was established with the three compositions or products. The beat treated DCD was added at 10 kg/ha and the DCD/P fertiliser blends were added at 10 kg DCD/ha equivalent.
A control (urea only) and 2 DCD rates (10 kg DCD/ha and 1 kg DCD/ha) were included. Ten kg/ha is a standard rate of DCD application and matches the DCD/P fertiliser rate while 1 kg/ha matches the DCD rate applied in the heat treated product which was 10% W /W DCD. All treatments received urea solution at approximately 200 kg N/ha, and were replicated three times.
The soil was a Horotiu silt loam (Yellow Brown Loam) collected to a depth of approximately 100 mm from a site on the Ruakuta farm. The soil was sieved through a 4 mm sieve and stored at 4 ° C. overnight. Sub-samples were taken to determine the moisture content, soil water holding capacity and initial inorganic N concentration. To measure moisture content, subsamples were dried at 105° C. for 24 hours.
Stock solutions of urea, DCD and heated treated DCD were prepared. The compositions were diluted in water to aid dispersion through the soil and the more accurate addition of small amounts of material. The DCD/fertiliser blends however were weighed and applied dry as the material was largely insoluble.
Each replicated treatment was added to 150 g of dry soil equivalent (195 g field moist soil) in a resealable plastic bag. Distilled water was added as necessary to increase the soil moisture to around 60% of water holding capacity. The contents of each bag were mixed thoroughly, and the bags sealed to include as much air as possible to ensure an aerobic environment was maintained. The bags were placed in an incubator set at 20°C. for the duration of the experiment (14 days).
Soil sub-samples were taken from the bags at 2, 5, 9 and 14 days after incubation commenced for ammonium and nitrate analysis. The equivalent of approximately 5 g dry weight of soil was weighed into 150 mL flasks, 50 mL of 2 M potassium chloride (KCl) was added and the flasks shaken for one hour using end-over-end shakers (Mulvaney, 1996). The extractant was filtered (Whatman #42 filter paper) before being frozen prior to analysis for nitrate-N and ammoniumn-N using a Skalar segmented flow analyser. The data were statistically analysed using the ANOVA directive of GenStat (10th Edition) and L.S.D. (least significant difference) were calculated.

[1] = Day 2, applied at 10 kg/ha (blends 10 kg DCD/ha equivalent)
[2] = Day 5, applied at 10 kg/ha (blends 10 kg DCD/ha equivalent)
[3] = Day 9, applied at 10 kg/ha (blends 10 kg DCD/ha equivalent)
[4] = Day 14, applied at 10 kg/ha (blends 10 kg DCD/ha equivalent)

N#CN=C(N)N [DCD, dicyandiamide]
Average ammonium concentration in soil (Day 2, applied at 1 kg/ha): 149.7 μg NH4—N/g soil | Average nitrate concentration in soil (Day 2, applied at 1 kg/ha): 55.8 μg NO3—N/g soil | Average ammonium concentration in soil [1]: 159.7 μg NH4—N/g soil | Average nitrate concentration in soil [1]: 48.1 μg NO3—N/g soil | Average ammonium concentration in soil (Day 5, applied at 1 kg/ha): 81.6 μg NH4—N/g soil | Average nitrate concentration in soil (Day 5, applied at 1 kg/ha): 139.4 μg NO3—N/g soil | Average ammonium concentration in soil [2]: 106.2 μg NH4—N/g soil | Average nitrate concentration in soil [2]: 108.7 μg NO3—N/g soil | Average ammonium concentration in soil (Day 9, applied at 1 kg/ha): 23.2 μg NH4—N/g soil | Average nitrate concentration in soil (Day 9, applied at 1 kg/ha): 193.7 μg NO3—N/g soil | Average ammonium concentration in soil [3]: 63.1 μg NH4—N/g soil | Average nitrate concentration in soil [3]: 148.1 μg NO3—N/g soil | Average ammonium concentration in soil (Day 14, applied at 1 kg/ha): 1.3 μg NH4—N/g soil | Average nitrate concentration in soil (Day 14, applied at 1 kg/ha): 233.8 μg NO3—N/g soil | Average ammonium concentration in soil [4]: 22.1 μg NH4—N/g soil | Average nitrate concentration in soil [4]: 216.6 μg NO3—N/g soil
